The results in this text go back to patent publication US7378530B2, “Anti-cancer and anti-microbial 5-membered heterocyclic compounds” (Nereus Pharmaceuticals, Inc., priority 2005, dated 2008).

The test system of assay [1] is Staphylococcus aureus - MRSA. Put plainly: Antimicrobial assay, MIC (NCCLS M7-A5). The format is cell-based, Staphylococcus aureus (methicillin resistant). The method, then: (§1) Minimum inhibitory concentrations (MICs) were determined according to the National Committee for Clinical Laboratory Standards (NCCLS) susceptibility test guideline M7-A5 (Ferraro, M. 2001 Methods for Dilution Antimicrobial Susceptibility Tests for Bacteria that Grow Aerobically; Approved Standard (NCCLS). National Committee for Clinical Laboratory Standards (NCCLS), Villanova, which is incorporated herein by reference in its entirety). The compound of formula VI was tested in DMSO while the compound of formula VII was tested in aqueous MeOH. The compound of formulae VIII and IX were tested in DMSO.

The next assay deals with PSSP. The assay can be described thus: Antimicrobial assay, MIC (NCCLS M7-A5). To be noted: Streptococcus pneumoniae. The class given is cell-based, Streptococcus pneumonia (penicillin sensitive). The protocol:
as §1

The test system of assay [2] is Staphylococcus aureus - MSSA. Put plainly: Antimicrobial assay, MIC (NCCLS M7-A5). The format is cell-based, Staphylococcus aureus (methicillin sensitive). The method, then: as §1
Another assay concerns H. inf. 49766. The assay can be described thus: Antimicrobial assay, MIC (NCCLS M7-A5). The class given is cell-based. Conditions: Haemophilus influenzae. The method, then: as §1
The subject of the next assay is H. inf. 49247. The assay can be described thus: Antimicrobial assay, MIC (NCCLS M7-A5). The class given is cell-based. Conditions: Haemophilus influenzae. The protocol:
as §1

Assay [3] has as its system Gram-positive microorganisms tested. The assay can be described thus: Antimicrobial assays, summary for Gram-positive microorganisms. The format is cell-based. The method, then: as §1
Assay [4] relates to Gram-negative microorganism Haemophilus influenzae. Put plainly: Antimicrobial assays, summary for Haemophilus influenzae. The format is cell-based. The method, then:
as §1

The test system of the next assay is VRE. Put plainly: Antimicrobial assay, MIC (NCCLS M7-A5). The format is cell-based, Enterococcus faecium (vancomycin resistant). Conditions: Enterococcus. The method, then:
as §1

A further assay concerns PRSP. The assay can be described thus: Antimicrobial assay, MIC (NCCLS M7-A5). The format is cell-based, Streptococcus pneumonia (penicillin resistant). Conditions: Streptococcus pneumoniae. The protocol:
as §1

A further assay deals with S. epi. 700578. The assay can be described thus: Antimicrobial assay, MIC (NCCLS M7-A5). The format is cell-based, Staphylococcus epidermis (multiple drug resistant). To be noted: Staphylococcus. The method, then:
as §1

The subject of the next assay is S. epi. 700582. The assay can be described thus: Antimicrobial assay, MIC (NCCLS M7-A5). Conditions: Staphylococcus. The format is cell-based, Staphylococcus epidermis (multiple drug resistant). The method, then: as §1
The next assay deals with VSE. Put plainly: Antimicrobial assay, MIC (NCCLS M7-A5). The format is cell-based, Enterococcus faecalis (vancomycin sensitive). Conditions: Enterococcus faecalis. The method, then: as §1
For the next assay, the system named is Candida albicans. Put plainly: Antimicrobial assay, MIC (NCCLS M7-A5). The format is cell-based. The method, then:
as §1

The next assay concerns E. c. MCR106. Put plainly: Antimicrobial assay, MIC (NCCLS M7-A5). The class given is cell-based. The method, then:
as §1

The subject of the next assay is E. c. imp. The assay can be described thus: Antimicrobial assay, MIC (NCCLS M7-A5). The format is cell-based. The method, then: as §1
A further assay deals with E. c. 25922. Put plainly: Antimicrobial assay, MIC (NCCLS M7-A5). The class given is cell-based. The method, then:
as §1

The test system of another assay is B16-F10 cells. Put plainly: Growth inhibition of murine melanoma B16-F10 cells (resazurin fluorescence). The class given is cell-based. The protocol: B16-F10 (ATCC; CRL-6475) a murine melanoma cell line was maintained in complete Dulbecco's Modification of Eagle's Medium (DMEM) (DMEM supplemented with 10% (v/v) Fetal bovine serum, 2 mM glutamine, 10 mM HEPES and Penicillin/Streptomycin at 100 IU/ml and 100 μg/ml respectively). The cells were cultured in an incubator at 37° C. in 5% CO2 and 95% humidified air. […] 20 mM stock solutions of formula VI were prepared in 100% DMSO. 10× concentrated serial dilutions of formula VI were prepared in complete media. Ten μl volumes of the serial dilutions were added to the test wells in triplicate resulting in final concentrations ranging from 20 μM to 6.32 nM. The plates were returned to the incubator for 48 hours. The final concentration of DMSO was 0.25% in all samples. Following 48 hours of drug exposure, 10 μl of 0.2 mg/ml resazurin (obtained from Sigma-Aldrich Chemical Co.) in Mg^2+, Ca^2+ free phosphate buffered saline was added to each well and the plates were returned to the incubator for 3-6 hours. Since living cells metabolize Resazurin, the fluorescence of the reduction product of Resazurin was measured using a Fusion microplate fluorometer (Packard Bioscience) with λex=535 nm and λem=590 nm filters. Resazurin dye in medium without cells was used to determine the background, which was subtracted from the data for all experimental wells. […]
In general terms: The colour change of resazurin is a common sign of viable cells or microbes.

For `CCCCCCC/C(C)=C/C(=O)CC(=N)OC(CCCC)C(=O)O` (stereo not shown) [Formula IX], the MIC in assay [1] (tested in DMSO) is greater than 32 µg/mL; in the assay on PSSP (tested in DMSO), greater than 32 µg/mL; in assay [2] (tested in DMSO), 24 µg/mL; against H. inf. 49766 (tested in DMSO), greater than 32 µg/mL; with H. inf. 49247 (tested in DMSO), greater than 32 µg/mL.

As to `CCCCCC/C(C)=C/C(=O)C=C1NC(=O)C(CCCC)O1` (stereo not shown) [Formula VIII], the MIC was found to be 3 µg/mL in assay [1] (tested in DMSO); 10 µg/mL against PSSP (tested in DMSO); 4 µg/mL in assay [2] (tested in DMSO); 5 µg/mL in the assay on H. inf. 49766 (tested in DMSO); 16 µg/mL against H. inf. 49247 (tested in DMSO). Also, the “anti-bacterial activity versus the Gram-positive microorganisms tested (statement in words)” value in assay [3] was “possess anti-bacterial activity”. Moreover, in [4], the “activity against the Gram-negative microorganism Haemophilus influenzae (statement in words)” value is reported as “weakly active”.

Consider `CCCCCCC/C(C)=C/C(=O)C=C1NC(=O)C(CCCCC)O1` (stereo not shown) [Formula VII], for which the MIC against VRE (tested in aqueous MeOH) came out at 1.5 µg/mL; against PRSP (tested in aqueous MeOH) it was 6 µg/mL; in [1] (tested in aqueous MeOH), 1.5 µg/mL; against S. epi. 700578 (tested in aqueous MeOH) it was 1.25 µg/mL; in the assay with S. epi. 700582 (tested in aqueous MeOH), 0.75 µg/mL; against VSE (tested in aqueous MeOH) it was 3 µg/mL. In addition, the MIC against PSSP (tested in aqueous MeOH) is 8 µg/mL; in [2] (tested in aqueous MeOH), 6 µg/mL; with Candida albicans (tested in aqueous MeOH), greater than 32 µg/mL; against H. inf. 49766 (tested in aqueous MeOH) it was 16 µg/mL; against E. c. MCR106 (tested in aqueous MeOH), greater than 32 µg/mL; against H. inf. 49247 (tested in aqueous MeOH) it was 12 µg/mL. Besides, the MIC in the assay with E. c. imp (tested in aqueous MeOH) and in the assay on E. c. 25922 (tested in aqueous MeOH) was greater than 32 µg/mL in each case. The “anti-bacterial activity versus the Gram-positive microorganisms tested (statement in words)” value in assay [3] was “possess anti-bacterial activity”. The “activity against the Gram-negative microorganism Haemophilus influenzae (statement in words)” value in assay [4] is “weakly active”.

Broadly, the EC50 is the concentration that produces a half-maximal response. Regarding `CCCCCCC/C(C)=C/C(=O)C=C1NC(=O)C(CCCC)O1` (stereo not shown) [Formula VI], the MIC turned out to be 1.83 µg/mL in the assay on VRE (tested in DMSO); 4.67 µg/mL against PRSP (tested in DMSO); 1.04 µg/mL in assay [1] (tested in DMSO); 0.54 µg/mL in the assay with S. epi. 700578 (tested in DMSO); 0.54 µg/mL in the assay with S. epi. 700582 (tested in DMSO); 3.67 µg/mL in the assay on VSE (tested in DMSO). Moreover, the MIC against PSSP (tested in DMSO) is 2.58 µg/mL; in [2] (tested in DMSO), 0.88 µg/mL; against Candida albicans (tested in DMSO), greater than 32 µg/mL; in the assay on H. inf. 49766 (tested in DMSO) it was 12 µg/mL; against E. c. MCR106 (tested in DMSO) it was greater than 32 µg/mL; with H. inf. 49247 (tested in DMSO), 12 µg/mL. Also, the MIC against E. c. imp (tested in DMSO) and against E. c. 25922 (tested in DMSO) was greater than 32 µg/mL each time. Besides, in the assay on B16-F10 cells, the “growth of B16-F10 tumor cells (statement in words)” value is listed as “inhibits the growth”. Further, the EC50 in the assay on B16-F10 cells (Mus musculus, B16-F10, 48 hours drug exposure, mean ± standard deviation of three independent experiments, read-out: EC50 against B16-F10 cells) came out at 6 ± 2.6 µM. Moreover, the “anti-bacterial activity versus the Gram-positive microorganisms tested (statement in words)” value in [3] is “possess anti-bacterial activity”. For the same compound, the “activity against the Gram-negative microorganism Haemophilus influenzae (statement in words)” value in assay [4] is recorded as “weakly active”.
